These results are taken from publication PMC4965013, “Open Source Drug Discovery with the Malaria Box Compound Collection for Neglected Diseases and Beyond” (PLoS Pathogens, 2016).

Test [1] has as its target PfPMT (Plasmodium falciparum, UniProt Q8IDQ9). Briefly: PfPMT gene replacement yeast growth. The conditions noted are these: 100µM.
The test system of test [2] is NCI60 human tumor cell lines. Description: NCI60 5-dose (dose-response) assay. The conditions noted are these: for MGLI50 = Mean Growth Log I50: 5-dose, mean over NCI60 panel; for _MID Log10GI50 / _MID Log10LC50 / _MID Log10TGI: mean over cell lines of one experiment. It is filed as cell-based. An excerpt: Columns IE-KK. NCI: Misra group (data presented first in this paper). NCI60 anti-tumor cell activity. Methods: […] These 60 cell lines, along with others, have been developed at NCI and have been maintained and distributed for research purposes by NCI for over 25 years. The experimental readout provides both inhibition of cell growth and cell kill. The screen was originally designed to prioritize agents for further evaluation. […] This is the same as for the 5-dose assay, described on http://dtp.cancer.gov/branches/btb/ivclsp.html. […] Testing beyond the initial screen: There were 133 compounds that passed threshold to proceed to 5-dose (dose-response) (data are available for the 133 compounds at the DTP public website (dtp.cancer.gov) by searching either the MMV number or NSC number). After examination of the 5-dose data, 10 compounds were selected for repeat testing based generally on potency, differential cell activity or activity on an individual cell lines or cell line panel. A summary of the data for the 10 compounds of interest is in the table below.

Test [3] relates to P. falciparum 3D7 trophozoites. Briefly: Metabolomic fingerprint profiling LC-MS. More on the design: UDP-D-glucose / ADP-D-glucose: unit not given here. It is filed as cell-based, Plasmodium falciparum.
For test [4], the system named is P. falciparum. Briefly: EC50 listed in S2 Table Metabolomics (used to set the concentration tested). It is filed as cell-based. The following applies: Plasmodium falciparum; EC50 used for Factor_XEC50 in metabolomics; read-out: EC50_nM.
Where [5] appears, read: metabolite level change after treatment.

Several values for one entry are separate records, joined by “and”; a condition that tells them apart may be missing. Identical values can stand only once.

PfPMT, sequence (Q8IDQ9 whole entry): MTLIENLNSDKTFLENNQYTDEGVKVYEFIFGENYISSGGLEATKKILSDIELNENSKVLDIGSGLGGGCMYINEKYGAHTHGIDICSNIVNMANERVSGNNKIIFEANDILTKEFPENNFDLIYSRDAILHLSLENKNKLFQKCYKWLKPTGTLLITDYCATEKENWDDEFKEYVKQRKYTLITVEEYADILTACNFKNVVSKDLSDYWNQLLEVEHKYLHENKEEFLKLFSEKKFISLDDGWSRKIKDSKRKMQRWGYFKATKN

For `CCOC(=O)c1cnc2ccc(OC)cc2c1Nc1ccc(N2CCN(C)CC2)cc1` [MMV000704], in test [1], the “candidate inhibitors of PfPMT activity (yeast functional assay)” value (“candidate inhibitors” below) was “candidate inhibitors of PfPMT activity”.
Take `N=c1n(CCN2CCCCC2)c2ccccc2n1CC(=O)c1ccc(Cl)c(Cl)c1` [MMV396723]: the “candidate inhibitors” value in test [1] is “candidate inhibitors of PfPMT activity”.
`CN1c2ccccc2N(C)C1c1ccc2c(c1)OCO2` [MMV666009]: in test [1], the “candidate inhibitors” value is “candidate inhibitors of PfPMT activity”.
The same measure, in the same setting: for `CCCCCCn1c(=N)n(CC(O)COc2cccc(C)c2)c2ccccc21` (centres unmarked) [MMV000445] the value was “candidate inhibitors of PfPMT activity”.
Same read-out and setting: for `OC(CNCC1CCCO1)Cn1c2ccc(Cl)cc2c2cc(Cl)ccc21` (centres unmarked) [MMV396736] the value was “candidate inhibitors of PfPMT activity”.
Regarding `COc1cccc(C(=O)NC(c2ccc(C)cc2)c2cc(Cl)c3cccnc3c2O)c1` (centres unmarked) [MMV665969], in test [2], the “MGLI50 = Mean Growth Log I50” value is recorded as -6.29, the “_MID Log10GI50” value is on record as -6.3 Molar, the “_MID Log10LC50” value is recorded as -4.16 Molar and the “_MID Log10TGI” value is -4.91 Molar.
As for `CCc1ccc(Nc2cc(C)c3ccc(O)cc3n2)cc1` [MMV000570], the Acetyllysine in test [3] (S2 Table Metabolomics, metabolite Acetyllysine) was -3.5798. For the same compound, the N-acetyl-L-ornithine in test [3] (S2 Table Metabolomics, metabolite N-acetyl-L-ornithine) was -2.11. In addition, in test [3] (S2 Table Metabolomics, metabolite N-carbamoyl-L-aspartate), the N-carbamoyl-L-aspartate is on record as -1.956. Also, the NADPH in test [3] (S2 Table Metabolomics, metabolite NADPH) was 0.5669. Besides, the dAMP in test [3] (S2 Table Metabolomics, metabolite dAMP) amounted to 0.09919. For the same compound, in test [3] (S2 Table Metabolomics, metabolite dCMP), the dCMP is listed as -0.6377. Also, the dTDP in test [3] (S2 Table Metabolomics, metabolite dTDP) came out at 0.1581. The dTMP in test [3] (S2 Table Metabolomics, metabolite dTMP) is 0.002348. Further, the dTTP in test [3] (S2 Table Metabolomics, metabolite dTTP) is reported as -0.746. Also, the dihydroorotate in test [3] (S2 Table Metabolomics, metabolite dihydroorotate) is recorded as -1.827. The orotate in test [3] (S2 Table Metabolomics, metabolite orotate) is listed as -1.158. The compound further came in with a DLH in test [3] (S2 Table Metabolomics, peptide DLH) of -3.486. The compound also gave a DLS/SDL/SID in test [3] (S2 Table Metabolomics, peptide DLS/SDL/SID) of -2.98. This compound also gave a PD in test [3] (S2 Table Metabolomics, peptide PD) of -3.426. Also, in test [3] (S2 Table Metabolomics, peptide PEE), the PEE is listed as -2.976. In test [3] (S2 Table Metabolomics, peptide PVNF), the PVNF is -3.666. The 3-phosphoglycerate in test [3] (metabolite 3-phosphoglycerate, S2 Table Metabolomics) is -0.3004. Moreover, the ADP-D-glucose in test [3] (metabolite ADP-D-glucose, S2 Table Metabolomics) is -0.2531. Also, in test [3] (metabolite ATP, S2 Table Metabolomics), the ATP is reported as -0.4297. The CDP in test [3] (metabolite CDP, S2 Table Metabolomics, change in metabolite level after compound treatment) is given as 0.1199. In test [3] (metabolite D-sedoheptulose-1/7-phosphate, S2 Table Metabolomics, change in metabolite level after compound treatment), the D-sedoheptulose-1/7-phosphate is on record as -0.03599. Further, the FAD in test [3] (metabolite FAD, S2 Table Metabolomics) was 0.02687. Moreover, the GMP in test [3] (metabolite GMP, S2 Table Metabolomics, change in metabolite level after compound treatment) is reported as -0.7921. In test [3] (metabolite NAD+, S2 Table Metabolomics), the “NAD+” value was -0.005921. Also, the “NADP+” value in test [3] (metabolite NADP+, S2 Table Metabolomics) stood at 0.04495. For the same compound, the “Octoluse Bisphosphate” value in test [3] (metabolite Octoluse Bisphosphate, S2 Table Metabolomics, change in metabolite level after compound treatment) is recorded as -0.7521. Moreover, the Pyroglutamic acid in test [3] (metabolite Pyroglutamic acid, S2 Table Metabolomics) worked out at 0.02528. The UDP-D-glucose in test [3] (metabolite UDP-D-glucose, S2 Table Metabolomics) is recorded as -0.0202. Moreover, in test [3] (metabolite UDP-D-glucuronate, S2 Table Metabolomics), the UDP-D-glucuronate is recorded as -0.1762. Besides, in test [3] (metabolite UDP-N-acetyl-glucosamine, S2 Table Metabolomics), the UDP-N-acetyl-glucosamine was -0.01786. Besides, the UDP in test [3] (metabolite UDP, S2 Table Metabolomics, change in metabolite level after compound treatment) is reported as 0.2064. Also, in test [3] (metabolite UMP, S2 Table Metabolomics, change in metabolite level after compound treatment), the UMP is on record as -0.3865. For the same compound, in test [3] (metabolite UTP, S2 Table Metabolomics, change in metabolite level after compound treatment), the UTP was -0.5565. The a-ketoglutarate in test [3] (metabolite a-ketoglutarate, S2 Table Metabolomics) is reported as -0.893. Further, the citrate/isocitrate in test [3] (metabolite citrate/isocitrate, S2 Table Metabolomics, change in metabolite level after compound treatment) was -0.9405. Also, the cytidine in test [3] (metabolite cytidine, S2 Table Metabolomics) worked out at 0.2459. The dATP in test [3] (metabolite dATP, S2 Table Metabolomics) was determined as 0.202. Further, the dGMP/AMP in test [3] (metabolite dGMP/AMP, S2 Table Metabolomics, change in metabolite level after compound treatment) stood at 0.175. Also, the fumarate in test [3] (metabolite fumarate, S2 Table Metabolomics, change in metabolite level after compound treatment) is -1.642. Also, the glucose-1/6-phosphate in test [3] (metabolite glucose-1/6-phosphate, S2 Table Metabolomics, change in metabolite level after compound treatment) is listed as -0.09278. Further, in test [3] (metabolite glycerate, S2 Table Metabolomics, change in metabolite level after compound treatment), the glycerate was -0.2054. The guanine in test [3] (metabolite guanine, S2 Table Metabolomics, change in metabolite level after compound treatment) is -0.06952. Further, in test [3] (metabolite guanosine, S2 Table Metabolomics, change in metabolite level after compound treatment), the guanosine is reported as -0.3954. Moreover, in test [3] (metabolite hypoxanthine, S2 Table Metabolomics), the hypoxanthine is given as 0.06102. Further, the indole in test [3] (metabolite indole, S2 Table Metabolomics) is -0.08521. In addition, the inosine in test [3] (metabolite inosine, S2 Table Metabolomics, change in metabolite level after compound treatment) is -0.1832. In test [3] (setting [5]), the 2_3-Diphosphoglyceric acid was -0.3845, the 4-phosphopantothenate was -0.2389, the 6-phospho-D-gluconate is listed as -0.3077 and the FMN is on record as -0.01655. In test [3] (setting [5]), the IMP is -0.277, the Pyrophosphate was 0.07301, the Sedoheptoluse bisphosphate is listed as -0.5323 and the cyclic-AMP is recorded as -0.9231. Further, in test [3] (setting [5]), the glutathione disulfide was -0.5684, the lactate is recorded as -0.3085 and the myo-inositol is listed as -0.5155. Also, in test [3] (metabolite nicotinate, S2 Table Metabolomics), the nicotinate is 0.1664. Moreover, in test [3] (metabolite ornithine, S2 Table Metabolomics), the ornithine is given as -0.4755. The phosphoenolpyruvate in test [3] (metabolite phosphoenolpyruvate, S2 Table Metabolomics) is reported as -0.0203. Further, the pyruvate in test [3] (metabolite pyruvate, S2 Table Metabolomics, change in metabolite level after compound treatment) amounted to 0.06241. Further, the ribose-phosphate in test [3] (metabolite ribose-phosphate, S2 Table Metabolomics) is -0.6825. Also, the sarcosine/alanine in test [3] (metabolite sarcosine/alanine, S2 Table Metabolomics, change in metabolite level after compound treatment) was -1.674. The sn-glycerol-3-phosphate in test [3] (metabolite sn-glycerol-3-phosphate, S2 Table Metabolomics) was -0.5868. Further, the succinate/methylmalonic acid in test [3] (metabolite succinate/methylmalonic acid, S2 Table Metabolomics, change in metabolite level after compound treatment) was -0.5023. In addition, the uridine in test [3] (metabolite uridine, S2 Table Metabolomics, change in metabolite level after compound treatment) was -0.4463. In addition, the xanthosine in test [3] (metabolite xanthosine, S2 Table Metabolomics, change in metabolite level after compound treatment) is on record as -1.566. The EC50 in test [4] came out at 194 nM. For the same compound, in test [1], the “candidate inhibitors” value is recorded as “candidate inhibitors of PfPMT activity”.
Regarding `CCOc1ccc(Nc2c3ccccc3nc3ccccc23)cc1` [MMV000304], the “candidate inhibitors” value in test [1] was “candidate inhibitors of PfPMT activity”.
Regarding `O=C(NC1CCN(Cc2ccccc2)CC1)c1cc(-c2ccncc2)nc2ccc(Cl)cc12` [MMV020275], the “MGLI50 = Mean Growth Log I50” value in test [2] is -4.93. Also, in test [2] (listed as 766585/2), the “_MID Log10GI50” value was -4.95 Molar and -4.91 Molar; the “_MID Log10LC50” value was -4.05 Molar and -4.01 Molar; the “_MID Log10TGI” value was -4.34 Molar and -4.19 Molar.
As for `Oc1c(CN2CCN(c3ccccc3F)CC2)cc(Br)c2cccnc12` [MMV000760], in test [2], the “Notes (NCI60 5-dose activity pattern)” value was “Differential” and the “MGLI50 = Mean Growth Log I50” value is reported as -6.02. Besides, in test [2] (listed as 766634/2), the “_MID Log10GI50” value was -6.03 Molar and -6.0 Molar; the “_MID Log10LC50” value is -4.04 Molar and -4.06 Molar; the “_MID Log10TGI” value is -4.67 Molar and -4.74 Molar.
With `Cc1ccc2c(C)nc(Nc3nc(C)cc(-c4ccccc4)n3)nc2c1` [MMV007041], the “candidate inhibitors” value in test [1] is “candidate inhibitors of PfPMT activity”.
`CCOc1cc(Br)c(C(C)NC(=O)c2cccc(OC)c2)cc1OCC` (centres unmarked) [MMV665796]: in test [2], the “MGLI50 = Mean Growth Log I50” value is given as -5 and the “_MID Log10LC50” value is -4.0 Molar. In test [2] (listed as 766556/2), the “_MID Log10GI50” value was -5.02 Molar and -4.97 Molar; the “_MID Log10TGI” value is -4.07 Molar and -4.08 Molar.
`COc1ccc(C2c3ccc4ccccc4c3Oc3ncn(CCCN(C)C)c(=N)c32)cc1` (centres unmarked) [MMV667491]: in test [1], the “candidate inhibitors” value was “candidate inhibitors of PfPMT activity”.
Same read-out and setting: to `COc1cc(C(=O)ON=C(N)Cc2cccc3ccccc23)cc(OC)c1OC` [MMV666687] belongs “candidate inhibitors of PfPMT activity”.
In the case of `O=C(Nc1ccc(-c2nc3cc(NC(=O)c4ccc(Cl)cc4)ccc3[nH]2)cc1)c1ccc(Cl)cc1` [MMV006962], in test [2], the “Notes (NCI60 5-dose activity pattern)” value was “Differential, CNS” and the “MGLI50 = Mean Growth Log I50” value was -5.61.
On to `Cc1ccc(OCCCCCCNCCO)c(C)c1` [MMV666020], for which the “MGLI50 = Mean Growth Log I50” value in test [2] is given as -4.9. Moreover, in test [2] (listed as 766672/2), the “_MID Log10GI50” value was -4.93 Molar and -4.86 Molar; the “_MID Log10LC50” value is -4.21 Molar and -4.19 Molar; the “_MID Log10TGI” value is -4.56 Molar and -4.52 Molar.
